# From patent US7947253B2, “Perturbed membrane-binding compounds and methods of using the same” (Aposense Ltd., priority 2004, dated 2011)
# Tests used:
# [1] = test system: Jurkat cells undergoing apoptosis induced by CD95; assay: Binding of tritium-labeled compounds to cultured Jurkat cells undergoing apoptosis induced by CD95; assay type: cell-based, human
# Experimental: Cultured Jurkat cells (human adult T cell leukemia cells) were grown in suspension in RPMI medium (Beit-Haemek, Israel), supplemented with 10% fetal calf serum (FCS), 2 mM of L-glutamide, 1 mM of sodium pyruvate, 1 mM HEPES and antibiotics (100 units/ml penicilin; 100 μg/ml streptomycin and 12.5 units/ml of nystatin). Prior to induction of apoptosis, medium was replaced with HBS buffer (10 mM HEPES; 140 mM NaCl, 1 mM CaCl). Apoptosis was then triggered by treatment with CD95 (0.1 ug/10^7 cells/ml). As a result, a marked percentage of the cells became apoptotic. Non-treated cells served as control. Both control cells and apoptotic cells were then incubated for 40 minutes at room temperature followed by 30 minutes on ice with (2 μCi/10^7 cells/0.5 ml) tritium-labeled NST 200 and NST 205.
# After washing the cells twice, 1 ml of SOLVABLE™ reagent (GNE9100, Packard Biosciences) was added to the pellet. Following one hour of incubation at 60° C., the extracts were transferred into glass scintillation vials and 10 ml of scintillation liquid (Ultima gold 6013329, Packard Biosciences) was added to each vial. The radioactivity was counted after 1 hour of cooling to room temperature and dark adaptation. The radioactive values were calculated and presented in percents of total added radiolabeled NST 200 and NST 205
# [2] = test system: injured regions within the outer medulla of the kidney; assay: Autoradiography in a rat model of radiocontrast-induced acute distal tubular necrosis; assay type: in vivo, rats; settings: 24 h after insult, 1 h after i.v. injection, FIG. 11
# Experimental: Nephropathy with selective medullary hypoxic tubular damage was induced by the combined administration of indomethacin (Sigma Chemical Co.), 10 mg/kg, i.v., N^ωnitro-L-arginine methyl ester (L-NAME, Sigma Chemical Co.), 10 mg/kg, i.v., and radiocontrast agent sodium-iothalamate 80% (Angio-Conray, Mallinckrodt Inc), 6 mL/kg, i.a. Additional rats injected with vehicles served as control. Twenty-four hours after insult, animals, both control and experimental were intravenously injected with 100 μCi of ^3H-NST205 and one hour later kidneys were excised and frozen in liquid nitrogen.
# [3] = test system: kidney regions of apoptotic/necrotic cell death; assay: Autoradiography of rat renal ischemia-reperfusion; assay type: in vivo, rats
# colon carcinoma tumors [4] = assay: Autoradiography of response to chemotherapy in a mouse model of colon carcinoma; assay type: in vivo, Balb/c male mice; settings: 4 h after i.v. injection
# Experimental: Colon carcinoma model was established in the abdomen of Balb/c male mice. At day 12-14 when tumor size was […] in diameter, the uptake of NST200 into tumors was measured following treatment of colon carcinoma tumors with i.v. injection of two doses of doxorubicin (20 mg/kg, 72 hours apart). Fourty-eight hours after the chemotherapy, both the control non-treated and the chemotherapy-treated animals were injected intravenously with and radio-labeled NST200 (80 μCi/animal) Four hours later, the animals were sacrificed. 10 μm frozen sections were prepared, air-dried and exposed to a tritium sensitive film. The film was exposed for a duration of 7 weeks, developed and analyzed by densitometny measurement. Measurement of ^3H-DDC densities in optical density/mm^2, […] was assessed by TINA software. Signals were translated according to a Microscale autoradiography standards and expressed in nCi/mg units.
# [5] = test system: Murine colon carcinoma cells (CT-26) tumors; assay: Uptake into colon carcinoma tumors: effect of chemotherapy (scintillation counting); assay type: in vivo, Balb/C mice
# Experimental: Murine colon carcinoma cells (CT-26) (ATCC CRL-2638) were maintained in RPMI (Gibco, UK), 2 mM of L-glutamine; 100 units/ml of penicillin; 100 μg/ml of streptomycine; 12.5 units/ml nystatin; and 10% heated inactivation FCS. Studies were carried out in adult male Balb/C mice 8-10 weeks old (weighting 20-25gr).
# Cells were trypsinized, washed twice with HBS (140 mM NaCl; […], PH 7.4) and than centrifuged (5 min, 1000 rpm, 4° C.) and concentrated into 2×10^6 cells/ml in a mixture of (2%) methyl cellulose and saline (1:3). A volume of 0.2 ml of the above solution (containing 4×10^5 cells/dose) was injected subcutaneously into the mice abdomen in both sides while mice were anaesthetized. Anaesthetic stock solution was prepared from 0.85 ml Ketamine (100 mg/ml)+0.15 ml Xilazine (2%) diluted 1:10. 0.1 ml of diluted solution was injected (i.p.) per 10 gr body weight.
# Mice were examined daily for palpable tumor formation. 7-10 days after tumor injection small tumors were visible.
# Uptake of ^3H-NST200 into tumors was measured following treatment of colon carcinoma tumors with i.v. injection of two doses of doxorubicin (20 mg/kg, 72 hours apart). 48 hours after the second dose, the mice were intravenously injected with ^3H-NST200 (10 μCi/animal). Four hours later, tumors were collected, weighed and the tissue was processed: tumor lysis was performed using SOLVABLE™ reagent (GNE9100, Packard Bioscience) in a ratio of one ml reagent per 150 mg of tumor tissue at 60° C. in 20 ml scintillation glass vials. Following 2-4 hours, one ml from each tissue extract was transferred to a glass scintillation vial. To reduce color quenching problems, samples were treated with 0.4 ml of 30% H2O2 in the presence of 0.066M EDTA. […] The vials were incubated for 1 hr at RT, and than analyzed in a β-counter (TRI-CARB 2100TR, liquid scintillation analyzer, Packard Bioscience). All samples were measured in triplicates Values of percents of injected dose (% ID/g tissue) were calculated for each sample.
# [6] = test system: brain and spinal cord white matter in EAE; assay: Autoradiography imaging of experimental autoimmune encephalomyelitis (EAE); assay type: in vivo, C3H.SW/C57/bl female mice; settings: FIG. 12
# colon carcinoma tumors [7] = assay: Uptake into treated colon carcinoma tumors compared with tumor volume; assay type: in vivo, Balb/c male mice
# Experimental: Colon carcinoma model was established in the abdomen of Balb/c male mice, as described in Example No. 10. At day 12-14 when tumor size was 6-8 mm in diameter, mice were injected intravenously with doxorubicin. A total of 2 doses of doxorubicin were given, separated by 3 days interval (each dose was 20 mg/Kg).
# Two days after the second doxorubicin injection, mice were injected i.v. with 10 μCi of ^3H-NST200 in a volume of 0.2 ml saline. Four hours following ^3H-NST200 injection, mice were sacrificed by pental overdosing. Tumors were collected in ependorff tubes, weighted and frozen in −20° C.
# Tumor lysis was performed using SOLVABLE™ reagent (GNE9100, Packard Bioscience) in a ratio of 1 ml reagent per 150 mg of tumor tissue at 60° C. in 20 ml scintillation glass vials. Following 2-4 hours, 1 ml from each tissue extract was transferred to a glass scintillation vial. To reduce color quenching problems, samples were treated with 0.4 ml of 30% H2O2 in the presence of 0.066M EDTA. […] The vials were incubated for 1 hr at RT, and than analyzed in a β-counter (TRI-CARB 2100TR, liquid scintillation analyzer, Packard Bioscience). Values of percents of injected dose (% ID/g tissue) were calculated for each sample. […] The uptake values of NST200 after each dose were correlated with tumor volume, which were calculated by the formula (assuming spherical tumors) V=πD^3/6, where D is the average tumor diameter.
# [8] = test system: colon carcinoma tumor vs other organs; assay: Biodistribution in colon carcinoma tumor bearing mice; assay type: in vivo, Balb/c male mice; settings: doxorubicin treated mice, 4 h after injection, table of FIG. 7
# Experimental: Colon carcinoma model was established in the abdomen of Balb/c male mice, as described in previous example, and ^3H-NST200 (10 μCi) was injected to animals treated with doxorubicin. Four hours later, the animals were sacrificed and various organs/tissues were collected and processed, to determine the accumulation of ^3H-NST200 within them. The uptake in each organ was expressed as % of the injected dose (ID), and the ratio between the uptake in the tumor and other organs was calculated, as shown in the table attached hereto as FIG. 7.
# [9] = test system: brain regions of apoptotic/necrotic cell death; assay: Autoradiography of apoptotic damage following middle cerebral artery occlusion in mice; assay type: in vivo, Balb/C mice
# Experimental: p-MCA was induced through a subtemporal approach in Balb/C mice with an outcome of a pronounced ischemic damage. Twenty-two hours after p-MCA, the animal's neurological score was assessed (from 0-no clinical signs to 3-hemiplegia, circling and catatonia) and radio-labeled NST200 (80 μCi/animal) was intravenously injected for successive 2 h before sacrificing the animals. 10 μm frozen sections were prepared, air-dried and exposed to a tritium sensitive film (Hyperfilm-3h, RPN535B Amersharn-Pharmacia, Eu). The film was exposed for a duration of 7 weeks, developed (GBX Developer & Fixer, Kodak, USA) and analyzed by densitometry measurement. Measurement of ^3H-DDC densities in optical density/mm^2, in the ischemic core vs. the contralateral hemisphere signal was assessed by TINA software. Signals were translated according to a Microscale autoradiography standards (RPN510 Amersham-Pharmacia, Eu) and expressed in nCi/mg units.
# [10] = test system: HeLa S3 cells undergoing apoptosis; assay: Fluorescent microscopy of binding to cultured HeLa cells undergoing apoptosis; assay type: cell-based; settings: aged HeLa culture, fluorescence, FIG. 3
# Experimental: HeLa S3 cells (ATCC CCL-2.2) were grown in Dulbecco's modified Eagle's medium (DMEM), supplemented with 2 mM of L-glutamine; 100 units/ml of penicillin; 100 μg/ml of streptomycin; 12.5 units/ml of nystatin and 10% of fetal calf serum (FCS). Cells were seeded at a density of 5×10^6 cells/plate, on a […] culture plates, in a volume of 10 ml, and were allowed to age by incubating the culture for 96 hours without exchange of the growth-medium. As a result, a marked percentage of the cells became apoptotic. Cells were harvested using a cell scraper, separated to single cells by passage through a syringe with a 18 G needle, and re-suspended at a density of 10^6 cells/ml in PBS buffer at pH=7.4. As was shown before NST 203 including a dansylamide group which enables the visualization of the fluorescence of a single cell.
smiles,measurement,setting,value
"CCCCC(CCCF)(C(=O)O)C(=O)O [NST205, 2-butyl-2(3-fluoropropyl)-malonic acid]",effect of adding caspase inhibitor ZVAD on the higher uptake in apoptotic cells,"[1]; CD95, plus ZVAD, FIG. 2B",completely reversed
same,uptake in apoptotic cells in comparison to the non apoptotic cells,"[1]; tritium-labeled compound, CD95-induced apoptosis, FIG. 2B",higher uptake
same,homing in kidney (autoradiography),[2],primarily restricted to injured regions within the outer medulla
same,targeting of injury within regions of apoptotic/necrotic cell death in ischemic kidney (autoradiography),"[3]; 45 minutes ischemia, 24 hours reperfusion, 1 h after i.v. injection, FIG. 10",specificity of targeting the injury
same,uptake into contralateral kidney,[3]; contralateral untreated kidney of same animal,no ^3H-NST205 uptake into contralateral kidney
CCCCC(C)(C(=O)O)C(=O)O [NST200],uptake in tumors upon induction of cell death via chemotherapy (autoradiography),"colon carcinoma tumors [4]; 48 h after two doses of doxorubicin, FIGS. 5B and C",dramatic increase
same,uptake in non-treated tumors (autoradiography),"colon carcinoma tumors [4]; control non-treated mice, FIG. 5A",no uptake
same,mean value of uptake in the treated group,"[5]; doxorubicin treated tumors, 48 hr after second dose, 4 h after i.v. injection",1.28 % ID/gr
same,mean uptake of treated group relative to mean value of the control group,[5]; doxorubicin treated vs non treated tumors,12.1 fold
same,increase in uptake in some treated tumors as compared with the control group,[5]; some chemotherapy-treated tumors,40-50 fold
same,uptake in apoptotic cells compared to the non-apoptotic cells,"[1]; tritium-labeled compound, CD95-induced apoptosis, FIG. 2A",over 8 fold
same,radio-ligand accumulation in brain vs control non-immunized mouse,"[6]; coronal brain sections, 1 h after i.v. injection",excess of radio-ligand accumulation in the whole brain
same,accumulation at the spinal cord level vs control untreated animal,[6]; longitudinal spinal cord section,impressive accumulation
same,increase in uptake in tumors after 2 doses of doxorubicin,"colon carcinoma tumors [7]; two days after second dose, 4 h after i.v. injection, vs control non-treated tumors",18.5 fold
same,ratio of uptake in the tumor vs. all organs,[8],> 1
same,targeting of injury within regions of apoptotic/necrotic cell death (autoradiography),"[9]; 22 h after p-MCA, i.v., 2 h, FIG. 9",specificity of targeting the injury
same,uptake in damaged brain hemisphere compared to the contralateral non-damaged hemisphere,[9]; tritium-labeled compound,markedly higher levels of uptake
"COc1cccc2c1C(=O)c1c(O)c3c(c(O)c1C2=O)C[C@@](O)(C(=O)CO)C[C@@H]3O[C@H]1C[C@H](N)[C@H](O)[C@H](C)O1 [doxorubicin, reference compound]",increase in tumor volume as compared to control non-treated tumors,"colon carcinoma tumors [7]; 2 doses of 20 mg/Kg i.v., 5 days, controls collected 5 days earlier, non-significant",50%
"CCCCNS(=O)(=O)c1cccc2c(N(C)C)cccc12 [BDA, n-butyl-dansylamide]",selectivity of binding to apoptotic vs non-apoptotic cells,[10],did not manifest this selectivity
